For three compounds, EC50 results are on record in patent US7812026B2, “Imidazole derivatives having a positive allosteric GABAB receptor modulator effect and methods of use” (AstraZeneca AB, priority 2005, dated 2010).

For orientation: EC50 means the concentration at which the effect is half-maximal. Low readings indicate a more potent agent, high ones a less potent agent.

The structures appear in SMILES notation.

For this assay, the target named is T1, GABAB receptor (Homo sapiens, UniProt O75899+Q9UBS5).
T1 construct: expressed in transfected cells; host or cells: CHO cells (membranes)
T1 sequence (Q9UBS5 15-961 limits assumed): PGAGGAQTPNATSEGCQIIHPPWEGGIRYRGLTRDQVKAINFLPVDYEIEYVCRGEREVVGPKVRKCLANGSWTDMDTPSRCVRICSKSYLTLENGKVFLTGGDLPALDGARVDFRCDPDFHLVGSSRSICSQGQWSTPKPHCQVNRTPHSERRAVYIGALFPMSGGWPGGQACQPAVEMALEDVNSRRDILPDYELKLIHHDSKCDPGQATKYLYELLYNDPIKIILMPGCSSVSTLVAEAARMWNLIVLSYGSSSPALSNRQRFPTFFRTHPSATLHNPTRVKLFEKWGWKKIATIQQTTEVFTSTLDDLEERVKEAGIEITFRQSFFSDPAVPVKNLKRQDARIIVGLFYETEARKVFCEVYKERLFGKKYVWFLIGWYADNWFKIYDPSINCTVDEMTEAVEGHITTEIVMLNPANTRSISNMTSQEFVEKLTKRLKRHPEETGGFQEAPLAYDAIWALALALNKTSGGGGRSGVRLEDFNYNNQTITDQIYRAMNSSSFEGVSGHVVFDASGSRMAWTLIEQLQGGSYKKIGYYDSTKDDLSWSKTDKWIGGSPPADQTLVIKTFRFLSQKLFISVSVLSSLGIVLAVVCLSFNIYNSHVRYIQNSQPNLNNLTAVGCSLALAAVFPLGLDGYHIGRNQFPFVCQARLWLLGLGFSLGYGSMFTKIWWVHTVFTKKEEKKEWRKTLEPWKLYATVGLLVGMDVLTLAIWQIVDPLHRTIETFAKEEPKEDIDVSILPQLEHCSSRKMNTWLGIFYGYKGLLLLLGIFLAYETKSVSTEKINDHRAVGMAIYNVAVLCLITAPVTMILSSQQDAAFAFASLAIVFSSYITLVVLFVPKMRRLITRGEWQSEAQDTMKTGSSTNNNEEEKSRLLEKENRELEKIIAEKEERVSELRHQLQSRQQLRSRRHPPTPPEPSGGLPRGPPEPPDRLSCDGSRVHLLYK
T1 sequence (O75899 42-941): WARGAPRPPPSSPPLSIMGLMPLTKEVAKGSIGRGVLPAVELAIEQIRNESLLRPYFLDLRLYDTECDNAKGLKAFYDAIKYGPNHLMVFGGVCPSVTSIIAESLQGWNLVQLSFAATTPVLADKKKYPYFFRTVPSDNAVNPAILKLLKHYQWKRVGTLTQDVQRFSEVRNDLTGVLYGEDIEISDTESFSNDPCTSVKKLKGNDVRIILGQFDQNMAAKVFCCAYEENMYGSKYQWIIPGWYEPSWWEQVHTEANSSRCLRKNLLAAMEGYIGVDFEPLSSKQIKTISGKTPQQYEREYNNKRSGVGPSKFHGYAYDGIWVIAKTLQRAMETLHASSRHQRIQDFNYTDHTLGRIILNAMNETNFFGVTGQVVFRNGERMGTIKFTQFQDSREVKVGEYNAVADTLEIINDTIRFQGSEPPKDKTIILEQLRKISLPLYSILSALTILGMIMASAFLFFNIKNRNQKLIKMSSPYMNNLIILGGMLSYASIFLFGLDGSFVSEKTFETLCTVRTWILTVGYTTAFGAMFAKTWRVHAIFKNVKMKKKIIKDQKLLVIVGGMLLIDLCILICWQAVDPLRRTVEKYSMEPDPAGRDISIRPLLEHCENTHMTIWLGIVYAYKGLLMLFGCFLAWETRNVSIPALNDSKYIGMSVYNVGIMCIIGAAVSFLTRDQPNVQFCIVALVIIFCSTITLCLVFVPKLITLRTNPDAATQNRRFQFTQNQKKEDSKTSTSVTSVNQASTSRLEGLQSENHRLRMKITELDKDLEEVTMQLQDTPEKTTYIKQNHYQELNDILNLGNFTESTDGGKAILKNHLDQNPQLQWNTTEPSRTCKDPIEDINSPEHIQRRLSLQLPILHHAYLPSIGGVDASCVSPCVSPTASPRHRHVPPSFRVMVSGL
The assay can be described thus: [35S]-GTPγS binding assay, potency of PAM. The following applies: potency of the positive allosteric modulator; log EC50 for GABA plotted against log concentration of modulator. The assay is classed as biochemical. As to the method: [^35S]-GTPγS binding assays were performed at 30° C. for 45 min in membrane buffer (100 mM NaCl, […], 1 mM EDTA, 50 mM HEPES, pH 7.4) containing 0.025 μg/μl of membrane protein (prepared from the cell lines described above) with 0.01% bovine serum albumin (fatty acid free), 10 μM GDP, 100 μM DTT and 0.53 nM [^35S]-GTPγS (Amersham-Pharmacia Biotech) in a final volume of 200 μl. Nonspecific binding was determined in the presence of 20 μM GTPγS. The reaction was started by the addition of GABA at concentration between 1 mM and 0.1 nM in the presence or absence of the required concentration of PAM. The reaction was terminated by addition of ice-cold wash buffer (50 mM Tris-HCl, 5 mM MgCl2, 50 mM NaCl, pH 7.4) followed by rapid filtration under vacuum through Printed Filtermat A glass fiber filters (Wallac) (0.05% PEI treated) using a Micro 96 Harvester (Skatron Instruments). The filters were dried for 30 min at 50° C., then a paraffin scintillant pad was melted onto the filters and the bound radioactivity was determined using a 1450 Microbeta Trilux (Wallac) scintillation counter.
GABA dose-response curves in the presence and absence of test compounds were constructed using the 4-parameter logistic equation, y=ymax+((ymin−ymax)/1+(x/C)^D), where C=EC50 and D=slope factor.
The potency of PAM in GTPγS assays was determined by plotting the log EC50 for GABA against the log concentration of the positive allosteric modulator in the presence of which the measurement was performed.
Take `CN(C)c1nc(NC(=O)COCc2ccccc2)c(C(=O)OC(C)(C)C)n1-c1ccccc1` [Example 9, tert-butyl 4-{[(benzyloxy)acetyl]amino}-2-(dimethylamino)-1-phenyl-1H-imidazole-5-carboxylate]: a half-maximal effect (EC50) was put at 2.47 µM. The compound `CN(C)c1nc(NC(=O)C2Cc3ccccc3O2)c(C(=O)OC(C)(C)C)n1-c1ccccc1` (stereo not drawn) [Example 13, tert-butyl 4-[(2,3-dihydro-1-benzofuran-2-ylcarbonyl)amino]-2-(dimethylamino)-1-phenyl-1H-imidazole-5-carboxylate] showed an EC50 of 5.13 µM. With `CCCc1c(C(=O)Nc2nc(N(C)C)n(-c3ccccc3)c2C(=O)OC(C)(C)C)cnn1-c1ccccc1` [Example 44, tert-butyl 2-(dimethylamino)-1-phenyl-4-{[(1-phenyl-5-propyl-1H-pyrazol-4-yl)carbonyl]amino}-1H-imidazole-5-carboxylate], the EC50 was found to be 2.53 µM.
